According to patent publication US20210171904A1, “CELL CULTURE METHOD AND CELL CULTURE APPARATUS” (NIKKISO CO., LTD., priority 2018, published 2021):

Assays:
[1] = pH of medium after addition of lactic acid (pH-uncorrected group); assay type: physicochemical
[2] = test system: human pluripotent stem cells; experiment: Cell density of human pluripotent stem cells after 5 days culture in waste-added medium (cell counter); assay type: cell-based; conditions: ammonium chloride added
Experimental: (§1) Onto a 24-well plate (Corning cellBIND Surface: from Corning Incorporated), seeded were 1×10^3 human pluripotent stem cells, to which a medium for pluripotent stem cell (StemFit: from Ajinomoto Co. Inc.) was added, and then cultured. To the medium before 24 hours from the start of culture, a culture substrate (iMatrix-511; from Nippi, Inc.) was added so as to adjust the concentration to 0.5 μg/ml, and also ROCK inhibitor (Y-27632: from FUJIFILM Wako Pure Chemical Corporation) was added so as to adjust the concentration to 10 μM.
After the elapse of 5 days, the number of cells in each well was measured by using TC20 full-automatic cell counter (from Bio-Rad Laboratories, Inc.), to calculate cell density. Results are illustrated in FIG. 5.
Onto a 24-well plate (Corning cellBIND Surface: from Corning Incorporated), seeded were 1×10^3 human pluripotent stem cells, to which a medium for pluripotent stem cell (StemFit: from Ajinomoto Co. Inc.) was added, and then cultured. […]
After the elapse of 5 days, the number of cells in each well was measured by using TC20 full-automatic cell counter (from Bio-Rad Laboratories, Inc.), to calculate cell density. […]

[3] = test system: human pluripotent stem cells; experiment: Optical microscope observation of cells on the 5th day of culture in waste-added medium; assay type: cell-based
Experimental: as §1
The individual cells on the 5th day of culture were observed under an optical microscope. FIG. 6 presents optical microphotographs of the cells cultured in the lactic acid-added medium.
as §1, with “μM. […]” for “μM.”

[4] = test system: human pluripotent stem cells; experiment: Real-time PCR of undifferentiation/differentiation marker gene expression (Oct4, Nanog, T, Pax6, Fox2) on the 6th day of culture; assay type: cell-based; conditions: ammonia 2.5 mM
Experimental: mRNA was then extracted from each cell on the 6th day of culture, using RNeasy Mini Kit (from QIAGEN N.V.), and then purified. Next, cDNA was synthesized from the thus purified mRNA, by using QuantiTect Reverse Transcription Kit (from QIAGEN N.V.). By using each cDNA as a template, and by using Thermal Cycler Dice Real Time System I (from Takara Bio Inc.), expression levels of Oct4, Nanog, T, Pax6 and Fox2 genes were measured by real-time PCR.
Proportion of expression levels of the individual genes at the individual concentration levels of ammonia were calculated, on the basis of the expression level at an ammonia concentration of 0 mM. FIG. 10 is a chart summarizing relation between the ammonia concentration and the gene expression levels. […] This confirms that keeping of the ammonia concentration at lower than 2.5 mM is effective to keep the cell in the undifferentiated state. It was also confirmed that the ammonia-induced promotion of cell differentiation may be suppressed more reliably, by keeping the ammonia concentration at 1 mM or below.

Row | pH of the medium ([1]; lactic acid concentration 5.0 mM) | pH of the medium ([1]; lactic acid concentration 7.5 mM) | pH of the medium ([1]; lactic acid concentration 10 mM) | pH of the medium ([1]; lactic acid concentration 15 mM) | SMILES | ammonia concentration at which cell density sharply decreases [2] [mM] | ammonia concentration at which morphological changes of the cell were observed [3] [mM] | expression level of Pax6 gene (ectoderm differentiation marker) relative to level at 0 mM [4] | expression level of T gene (mesoderm differentiation marker) relative to level at 0 mM [4]
1 | 6.9 | 6.8 | 6.7 | 6.5 | CC(O)C(=O)O (centres unmarked) [lactic acid] | – | – | – | –
2 | – | – | – | – | N [ammonia] | ≥ 10.0 | ≥ 2.5 | nearly ten times | nearly ten times
